Measurements as given in patent US20120196918A1, “PREVENTING ISLET INFLAMMATION AND DYSFUNCTION AND MAINTAINING PROPER GLUCOSE LEVELS BY CONTROLLING eIF5A AND ITS HYPUSINATION” (priority 2009, published 2012).

Key:
iNOS = assay: Cytokine-induced iNOS protein in human islets (immunoblot); format: cell-based; settings: incubation with GC7, cytokines
Excerpt: eIF5A1 and eIF5A2 are the only proteins known to contain the unique amino acid hypusine at position 50. Hypusine is formed as a posttranslational modification of residue Lys50 in a reaction requiring spermidine and catalyzed by the sequential actions of the enzymes deoxyhypusine synthase (DHS) and deoxyhypusine hydroxylase (DOHH) (Chen, K Y, and Liu, A Y. Biochemistry and function of hypusine formation on eukaryotic initiation factor 5A. Biol Signals. 1997; 6(3):105-109). […] To further investigate the mechanism of eIF5A-regulated translation of Nos2, studies were performed following overnight incubation of cells with mimosine (an inhibitor of DOHH) and GC7 (an inhibitor of DHS). […]
Immunoblot and nitrite and iNOS assays: Whole cell extracts were resolved by electrophoresis on a 4-20% SDS-polyacrylamide gel, followed by immunoblot using anti-eIF5A1, anti-eIF5A2, anti-iNOS, anti-GFP, or anti-actin primary antibodies and fluorophore-labeled secondary antibodies. Immunoblots were visualized using the Li-Cor® Odyssey® system (Li-Cor Biosciences) and quantitated by scanning fluorometry using Odyssey Imaging v. […] Nitrite was quantitated by measuring nitric oxide-derived nitrite from INS-1 cell culture medium using the Griess reagent (Promega) according to the manufacturer's recommendations. iNOS activity was measured using a commercially available kit (Cayman).

eIF5A-Hyp = assay: New hypusine formation (3H-spermidine incorporation) in mouse islets; format: cell-based; settings: GC7 125 μM overnight
Excerpt: eIF5A1 and eIF5A2 are the only proteins known to contain the unique amino acid hypusine at position 50. Hypusine is formed as a posttranslational modification of residue Lys50 in a reaction requiring spermidine and catalyzed by the sequential actions of the enzymes deoxyhypusine synthase (DHS) and deoxyhypusine hydroxylase (DOHH) (Chen, K Y, and Liu, A Y. Biochemistry and function of hypusine formation on eukaryotic initiation factor 5A. Biol Signals. 1997; 6(3):105-109). […] To further investigate the mechanism of eIF5A-regulated translation of Nos2, studies were performed following overnight incubation of cells with mimosine (an inhibitor of DOHH) and GC7 (an inhibitor of DHS). […] Similar data using GC7 were obtained in primary mouse islets (data not shown) and in human islets (FIGS. 5F and 5G). […]
Measurement of hvpusination: Approximately 100 islets or 1×10^6 INS-1 cells per condition were incubated with 1.5 μCi ^3H-spermidine (Perkin Elmer) in the presence of 1 mM aminoguanidine. […] Gels were visualized by fluorography, and bands were quantitated using Kodak Molecular Imaging Software v. […]

[1] = tested on: LPS-treated NOD/Scid-(IL-2Rγ-null) mice; assay: LPS injection model in NOD/Scid-(IL-2Rγ-null) mice; format: in vivo, mouse; settings: GC7 4 mg/kg/day i.p.
Description: Because systemic GC7 delivery would be expected to inhibit hypusination in all cells that express DHS, it is unclear if the islet protection afforded by GC7 in vivo is a result of its effects in the islet, the immune cells, or both. In order to clarify this, the IL-1 responses in STZ-treated C57BL/6J animals were assessed by measuring levels of the IL-1-responsive cytokine IL-6. […] No alterations in serum levels of IL13 and Rantes/CCL5 were observed between treatment groups (FIG. 10F). […] To address the role of immune cells more directly, a mouse model was generated to test the role of hypusination in the islet inflammatory response independently of the immune system. Lipopolysaccharide (LPS) is an agent that evokes the NFkB response through activation of the toll-like receptor 4 (TLR4) (48), which is also expressed in pancreatic islets (49). […]
GSIS and IPGTT studies: For GSIS studies using isolated islets, approximately 50 islets or 1×10^6 INS-1 cells per condition were washed and incubated in Krebs-Ringer HEPES-buffered (KRB) solution for one hour at 37° C., and then placed in KRB solution containing 3 mM or 11 mM glucose for one hour. […] Blood glucose was measured from samples taken from the tail vein before intraperitoneal injection of 1 g glucose per kg mouse weight, and at 10, 20, 30, 60, 90, 120, and 180 minutes after glucose administration using an A1phaTrak® glucometer (Abbott). […]

## NCCCCCCCN=C(N)N [GC7]
iNOS
  iNOS protein levels in human islets: dose-dependent inhibition
eIF5A-Hyp
  new hypusine formation in mouse islets: effectively inhibits new hypusine formation
[1]; LPS 20 mg/kg single injection
  glucose intolerance in IPGTT 3 days after LPS: no evidence of glucose intolerance
[1]; LPS 20 mg/kg
  iNOS staining intensity in islets: increased iNOS staining intensity in islets of vehicle-treated animals, but not in GC7-treated animals
